The nature of data set [1]: Automated passive avoidance learning. Format: in vivo, rat. The note with it: oral, 5 minutes after training period; FIGS. 5A, 5B. As for the experimental part:
FIGS. 5A and 5B are graphs depicting the effect of administration of representative ligand inhibitors of this invention, Compound Nos. 97-1 and 153, respectively. The ligand inhibitors were administered 5 minutes post-training period in the passive avoidance test.
The apparatus for both rats and mice is the same as used in active avoidance testing (see Example 14).
For the training trial, the animal is placed individually in one compartment of the learning apparatus, which is separated from a second compartment by a guillotine door. Following a three minute habituation period, the door is opened and the latency to enter the second compartment is recorded. When the animal enters with all four paws, the door is closed, and a 0.5 second AC footshock (Coulburn precision shocker) is delivered. After five seconds, the subject is removed and placed in its home cage. At the time of testing (usually 1-7 days later), the animal is returned to the compartment in which it was initially placed for the learning trial, the door is opened and the latency to enter the second compartment is recorded, but the animal is not shocked. […]
For most strains of rats with weights between 150 and 350 grams, an effective footshock intensity ranges from 0.2-1.0 mA. […] The latency time of rats to enter the dark compartment is measured. […]

In data set [2] the target is T1, human recombinant CRF-BP (Homo sapiens, UniProt P24387).
T1 construct: made in house
T1 sequence (P24387 25-322): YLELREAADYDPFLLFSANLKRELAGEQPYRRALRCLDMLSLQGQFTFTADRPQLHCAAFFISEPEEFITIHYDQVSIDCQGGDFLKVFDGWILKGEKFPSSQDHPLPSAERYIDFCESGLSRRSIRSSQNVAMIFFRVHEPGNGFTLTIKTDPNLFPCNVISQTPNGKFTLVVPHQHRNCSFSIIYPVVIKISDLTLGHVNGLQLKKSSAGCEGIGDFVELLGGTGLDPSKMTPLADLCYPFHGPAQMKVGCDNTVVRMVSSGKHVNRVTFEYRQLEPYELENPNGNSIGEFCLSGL
Nature of the data set: LIRMA: displacement of 125I-h/rCRF from CRF-BP, Ki. Format: binding. The note with it: inhibitory binding affinity constant (Ki). As for the experimental part: In LIRMA CRF-BP isolated from brain tissue, serum, or cells expressing a recombinant form, is added to wells of a 96-well plate, to small polypropylene microfuge tubes, or to glass borosilicate tubes in a binding buffer (0.02% NP-40 in 50 mM phosphate-buffered saline). ^125 I-h/rCRF (New England Nuclear) and the candidate ligand inhibitor at 10 μM are added and the reaction is incubated for 1 hour at room temperature. An appropriately diluted anti-CRF-BP antibody, such as a rabbit anti-hCRF-BP (Potter et al., Proc. Natl. Acad. Sci. USA 89:4192-4196, 1992) is added to each tube, and after further incubation, bound complexes are precipitated by the further addition of a goat anti-rabbit antibody. The precipitate containing ^125 I-CRF is collected by centrifugation and the amount of radioactivity in the pellet is determined by a gamma counter. If the candidate ligand inhibitor displaces CRF from CRF-BP, the pellets will contain less radioactivity in comparison to controls in which no candidate peptide is added. Maximum inhibition (i.e., 100%) of the binding of ^125 I-h/rCRF to the CRF-BP is defined by the amount of radioactivity left in the pellets after incubation with 10 μM of the CRF-BP peptide ligand h/rCRF (6-33). Thus, the binding potency of the candidate ligand inhibitor will be measured relative to the potency of the standard h/rCRF (6-33).
Thus, a ligand having a Ki of less than that of hCRF will bind more strongly to hCRF-BP than will hCRF itself, and a ligand having a higher value will have a relatively lower binding affinity.
The assay is performed in 600 μl polypropylene microfuge tubes or a 96-well plate. First, 50 μl of a 250 ng/ml of purified recombinant CRF-BP is added to 150 μl of PBS binding buffer (50 mM sodium phosphate, 0.15M NaCl, and 0.02% NP-40). Next, ^125 I-h/r CRF at a final concentration of 200 pM and 50 μl of a 10-100 μM concentration of the ligand inhibitor are added and incubated for 1 hour at room temperature. To the reaction, 50 μl of anti-CRF-BP antibody, 5144, diluted 1:1000 with assay buffer is added to each tube and allowed to bind for a further 1 hour at room temperature. The total volume in all tubes is adjusted to 300 μl with assay buffer. Bound complexes are precipitated by the addition of 200 μl of preprecipitated goat anti-rabbit (GAR) second antibody at 1:20 in 1% normal rabbit serum, 4% PEG, 50 mM sodium phosphate, 0.1% sodium azide, followed by incubation for 1 hour at room temperature. The antibody-bound ^125 I-CRF precipitate is then collected by centrifugation (3000×g) at 4° C. for 20 minutes in a Beckman GS-15R centrifuge. Using a Beckman Biomer 1000 robotic workstation, the tubes are aspirated and washed once with 600 μl of PBS plus 0.02% NP-40. Tubes containing the pellets are then transferred to 12×74 mm counting tubes and counted in a gamma counter.
Inhibitory binding affinity constant (Ki) values are determined using the method of Munson et al., Anal. Biochem. 107:220, 1980.
(In general: Displacement assays read how much labelled ligand stays bound in the presence of the test substance.)

For data set [3] the following is noted: cited from earlier work.
Data set [4] concerns human CRF-BP. The note with it: cited from earlier work.
Data set [5] deals with CRF/CRF-BP complexes. Nature of the data set: Disruption of CRF/CRF-BP complexes in human brain tissue in vitro. The format is binding. From the text: Other peptide molecules, which are distinct from CRF, bind CRF-BP. For example, the human neuropeptide urocortin (Vaughan et al., Nature 378:287, 1995) has a high affinity for human CRF-BP. […] Thus, CRF-BP may be a modulator of a family of CRF-related peptides. […] Such disruption has the effect of increasing free CRF levels, thus making more CRF available for binding to its receptors. The ligand inhibitors of the present invention may also be used to elevate free levels of urocortin and other members of the CRF family in mammals. Assays for measuring the increase of urocortin (as well as other CRF-related peptides) are performed essentially as described herein for CRF, except that the appropriate detection molecules are employed (e.g., antibody to urocortin). Moreover, urocortin, sauvagine, urotensin, and the like and their analogues may be used to inhibit CRF/CRF-BP complexes and raise free CRF levels or inhibit urocortin/CRF-BP complexes and raise free urocortin levels.

Data set [6] in a line: Morris water maze test. Format: in vivo, rat. Particulars: 1 or 20 mg/kg oral, 15 minutes prior to testing; FIGS. 4A, 4B. As for the experimental part: As discussed in more detail below (see Example 6), 15 minutes prior to training on each of days 1-3, groups of animals orally receive control solution or a dosage of the ligand inhibitor. Control animals typically reach the platform within five to ten seconds after three days of training. The measure of the memory modulator effects of a ligand inhibitor is a shift of this time period. Administration of a ligand inhibitor results in a dose-dependent increase in availability of synaptic CRF and a behavioral dose-dependent increase in acquisition and memory retention.
The Morris Water Maze Test is a simple spatial learning task that requires a minimal amount of stress and experience. […] The latency time to find a hidden platform is monitored. […]
The apparatus used in this test is a pool (46.4 cm in diameter, 45.7 cm high) filled to a depth of 23 cm with opaque water (22° C.-25° C.). […] The animal is placed into a designated quadrant of the tank and the time to approach and ascend the hidden platform is measured; the location of subject placement and platform remain constant throughout the experiment. […]
Rats were treated by oral administration with either vehicle or 1 or 20 mg/kg of either Compound No. 1 or Compound No. 153 15 minutes prior to testing. The latency time to reach the platform in the Morris water maze was recorded for each group.

The test system of data set [7] is CRF receptors. Particulars: rat, in vivo; cited from earlier work.
Data set [8] relates to CRF/CRF-BP complexes. Nature of the data set: ELISA of CRF/CRF-BP complex in NP-40 solubilized cerebrocortical brain tissue (FIG. 3). Particulars: post-mortem controls and Alzheimer's disease patients. Format: binding, human. On the procedure:
FIG. 3 is a graph displaying the results of ELISAs testing the ability of a representative ligand inhibitor, Compound No. 35, to displace endogenous CRF from CRF-BP in brain tissue from Alzheimer's disease patients and normal controls.
Another ligand inhibitor, Compound No. 35, was tested for its ability to inhibit CRF/CRF-BP complexes in NP-40 solubilized human cerebrocortical brain tissue obtained postmortem from controls and Alzheimer disease patients. Briefly, 0.1-0.5 g of brain tissue was homogenized in phosphate-buffered saline containing 0.2% NP-40. The homogenate was clarified by centrifugation at 3000×g for 10 minutes. Supernatants were assayed by ELISA for the formation of CRF/CRF-BP complex in the presence or absence of Compound No. 35.
(In general: In an ELISA, binding on a coated surface is turned into a signal by an enzyme label.)

For data set [9] the following is noted: cited from earlier work. The source holds these as a separate data set.
A short description of data set [10]: Elevated plus-maze test. The note with it: ICV. The format is in vivo, rat. From the text:
The Elevated plus-maze test predicts how animals respond to an approach-avoidance situation involving an exposed, lighted space versus a dark, enclosed area. In the maze, both spaces are elevated off the ground and constitute two runways intersecting in the form of a plus sign. This type of approach-avoidance situation is a classical test of "emotionality" and is very sensitive to treatments that produce disinhibition (such as sedative or hypnotic drugs) and stress. No motivational constraints are necessary and the animal is free to remain in the dark or venture out onto the open arms.
The elevated plus-maze apparatus has four arms (50 cm long, 10 cm wide) situated at right angles to each other and elevated from the floor (50 cm). Two of the arms are enclosed with walls (40 cm high) and two arms have no walls (open arms). Subjects are placed individually into the center of the maze and allowed free access to all four arms for a 5 minute testing period. The time spent in each arm is recorded automatically by photocell beams and a computer interface.
Groups of 7-10 rats receive ICV injections of the ligand inhibitor. For purposes of comparison, rats also receive 0 or 0.1-25 μg of h/rCRF (1-41).

Ends that are not written are not given here. Bounds are passed on as bounds.

As a reminder, the Ki is a dissociation constant, usually derived from enzyme kinetics or from competition with a known ligand. Consider `O=c1c(C=Nc2nc3ccccc3[nH]2)c(O)n(CCCc2ccccc2)c(=S)n1CCCc1ccccc1` [Compound 97-1], for which the “latency time to entering the dark compartment” value in [1] was “increase in medium latency time”. Further, in [2], the inhibition constant (Ki) was less than 50 nM.

With “urocortin: the human neuropeptide urocortin (DNPSLSIDLTFHLLRTLLELARTQSQRERAEQNRIIFDSV; ends and bridges not checked; UniProt P55089 83-122, looked up)”, the feeding behavior entry in [3] (animals) is on record as “significantly suppress feeding behavior in animals”. Further, the blood pressure entry in data set [3] (in vivo) is reported as “lowering blood pressure”. Also, in [4], the “affinity for CRF-BP” value is reported as “high affinity”.

Take “rat urocortin: rat urocortin (DDPPLSIDLTFHLLRTLLELARTQSQRERAEQNRIIFDSV; ends and bridges not checked; UniProt P55090 81-120, looked up)”: the “disruption of CRF/CRF-BP complexes” value in data set [5] is “can disrupt the CRF/CRF-BP complexes”.

Consider `COc1ccc(Cn2c(O)c(C=Nc3ncc(C)s3)c(=O)n(Cc3ccc(OC)cc3OC)c2=S)c(OC)c1` [Compound 153], for which the “latency time to entering the dark compartment” value in [1] is “increase in medium latency time”. For the same compound, the “latency time to reach the platform / performance” value in data set [6] was “improved performance at each time interval”.

Turning to `CN1[C@@H]2CC[C@H]1C[C@@H](OC(=O)C(CO)c1ccccc1)C2` (stereo partly shown) [atropine], the “CRF receptors after treatment” value in data set [7] was “increase in CRF receptors”.

Take `O=c1oc2ccc(Cl)cc2c(O)c1C=Nc1nc2ccccc2s1` [Compound 35]: the “inhibition of formation of CRF/CRF-BP complexes in brain tissue” value in data set [8] was “inhibits formation of CRF/CRF-BP complexes in brains of controls and Alzheimer's disease patients”.

As to “human CRF: peptide that regulates the release of adrenocorticotropin (ACTH), β-endorphin, and other POMC-derived peptides from the pituitary”, in [9] (rat, in vivo), the nocturnal food intake entry was “significant decrease on nocturnal food intake” and the “temperature response in brown adipose tissue” value is recorded as “increased temperature response in brown adipose tissue”. In addition, in data set [9] (rats), the body weight entry was “lowered body weight in rats”. In [4], the “affinity for CRF-BP” value is on record as “high affinity”. Also, the carbachol-induced behaviors result in data set [7] was “inhibits carbachol-induced behaviors”. In addition, the “time on the open arms / performance” value in [10] was “significantly more time on the open arms, indicating increased anxiety”.

Source of the values: patent publication US5959109A, “Compounds and methods for increasing endogenous levels of corticotropin-releasing factor” (Neurocrine Biosciences, Inc., priority 1996, dated 1999).
